Data taken from ChEMBL document CHEMBL2062378, “Antimycobacterial activity: a facile three-component [3+2]-cycloaddition for the regioselective synthesis of highly functionalised dispiropyrrolidines” (Bioorg Med Chem Lett, 2012).
≈ marks a conversion by molar mass, not a printed value.

Key:
[1] = test system: Vero; experiment: Cytotoxicity against african green monkey Vero cells after 72 hrs by MTT assay; assay type: cell-based; conditions: Chlorocebus sabaeus
[2] = test system: Mycobacterium tuberculosis; experiment: Antimycobacterial activity against Mycobacterium tuberculosis H37Rv ATCC 27294 by alamar blue broth microdilution assay; assay type: functional

Row | SMILES | IC50 [1] [µg/mL] | MIC90 [2] [µM]
1 | CN1CC(c2ccc(C(F)(F)F)cc2)C2(Cc3ccccc3C2=O)C12C(=O)c1ccccc1C2=O (stereo unspecified) | > 62.5 | 0.638 (≈ 0.303 µg/mL)
2 | NNC(=O)c1ccncc1 [ISONIAZID] | > 62.5 | 0.73 (≈ 0.1 µg/mL)
3 | CN1CC(c2cccc3c2OCO3)C2(Cc3ccccc3C2=O)C12C(=O)c1ccccc1C2=O (stereo unspecified) | > 62.5 | 2.42 (≈ 1.09 µg/mL)
4 | CN1CC(c2ccc(N3CCOCC3)cc2)C2(Cc3ccccc3C2=O)C12C(=O)c1ccccc1C2=O (stereo unspecified) | > 62.5 | 1.22 (≈ 0.598 µg/mL)
5 | CN1CC(c2ccc(Br)cc2)C2(Cc3ccccc3C2=O)C12C(=O)c1ccccc1C2=O (stereo unspecified) | > 62.5 | 1.37 (≈ 0.667 µg/mL)
6 | COc1ccc(C2CN(C)C3(C(=O)c4ccccc4C3=O)C23Cc2ccccc2C3=O)cc1 (stereo unspecified) | > 62.5 | > 6.25
7 | CN1CC(c2ccc(OC(F)(F)F)cc2)C2(Cc3ccccc3C2=O)C12C(=O)c1ccccc1C2=O (stereo unspecified) | > 62.5 | 0.214 (≈ 0.105 µg/mL)
8 | CN1CC(c2cccc([N+](=O)[O-])c2)C2(Cc3ccccc3C2=O)C12C(=O)c1ccccc1C2=O (stereo unspecified) | > 62.5 | 0.81 (≈ 0.366 µg/mL)
9 | CN1CC(c2ccccc2)C2(Cc3ccccc3C2=O)C12C(=O)c1ccccc1C2=O (stereo unspecified) | > 62.5 | 6.22 (≈ 2.53 µg/mL)
10 | CN(C)c1ccc(C2CN(C)C3(C(=O)c4ccccc4C3=O)C23Cc2ccccc2C3=O)cc1 (stereo unspecified) | > 62.5 | 3.32 (≈ 1.5 µg/mL)
11 | CN1CC(c2ccc(C(=O)O)cc2)C2(Cc3ccccc3C2=O)C12C(=O)c1ccccc1C2=O (stereo unspecified) | > 62.5 | 0.295 (≈ 0.133 µg/mL)
12 | CN1CC(c2cncc(-c3ccc(F)cc3)c2)C2(Cc3ccccc3C2=O)C12C(=O)c1ccccc1C2=O (stereo unspecified) | > 62.5 | 0.121 (≈ 0.0611 µg/mL)
13 | CN1CC(c2ccc(Cl)cc2)C2(Cc3ccccc3C2=O)C12C(=O)c1ccccc1C2=O (stereo unspecified) | > 62.5 | 1.2 (≈ 0.528 µg/mL)
